Test results reported in patent US11884627B2, “Compounds and compositions for treating conditions associated with LPA receptor activity” (Lhotse Bio, Inc., priority 2022, dated 2024).

Tests used:
human LPA1 [1] = biological target: T1, human LPA1 (Homo sapiens, UniProt Q92633); assay: In vitro LPA1 functional antagonist assay (calcium mobilization, FLIPR); format: cell-based; conditions: CHO-K1 cells overexpressing human LPA1, Oleoyl LPA challenge at EC80
T1 construct: expressed in transfected cells; host or cells: CHO-K1
T1 sequence (Q92633 whole entry): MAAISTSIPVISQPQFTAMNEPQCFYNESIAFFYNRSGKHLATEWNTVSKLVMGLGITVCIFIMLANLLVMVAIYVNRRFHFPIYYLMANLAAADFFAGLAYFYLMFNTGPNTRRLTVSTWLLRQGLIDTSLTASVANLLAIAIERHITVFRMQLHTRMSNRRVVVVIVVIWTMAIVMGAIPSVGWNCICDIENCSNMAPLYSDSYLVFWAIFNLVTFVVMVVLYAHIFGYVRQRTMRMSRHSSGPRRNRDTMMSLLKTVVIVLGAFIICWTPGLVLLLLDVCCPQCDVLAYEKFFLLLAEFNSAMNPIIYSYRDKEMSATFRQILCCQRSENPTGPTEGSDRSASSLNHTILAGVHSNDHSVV
Protocol: In Vitro LPA1 Functional Antagonist Assay
CHO-K1 cells overexpressing human LPA1 were seeded in a total volume of 20 μL into black-walled, clear-bottom. Poly-D-lysine coated 384-well microplates and incubated at 37° C., for the appropriate time prior to testing. Assays were performed in 1× Dye Loading Buffer consisting of 1× Dye, 1× Additive A and 2.5 mM Probenecid in HBSS/20 mM Hepes. Probenicid was prepared fresh. Cells were loaded with dye prior to testing. Media was aspirated from cells and replaced with 20 μL Dye Loading Buffer. Cells were incubated for 30-60 minutes at 37° C. After dye loading, cells were removed from the incubator and 10 μL 3× test compound was added. Cells were incubated for 30 minutes at room temperature in the dark to equilibrate plate temperature followed by Oleoyl LPA challenge at EC80. Compound antagonist activity was measured on a FLIPR Tetra (MSD). Calcium mobilization was monitored for 2 minutes and 10 μL Oleoyl LPA in HBSS/20 mM Hepes was added to the cells 5 seconds into the assay. For LPA EC80 determination, after dye loading, cells were removed from the incubator and 10 μL HBSS/20 mM Hepes was added. 3× vehicle was included in the buffer. Cells were incubated for 30 minutes at room temperature in the dark to equilibrate plate temperature. Intermediate dilution of LPA stocks was performed to generate 4×LPA samples in assay buffer. LPA agonist activity was measured on a FLIPR Tetra (MSD). Calcium mobilization was monitored for 2 minutes and 10 μL 4×LPA sample in HBSS/20 mM Hepes was added to the cells 5 seconds into the assay. Compound activity was analyzed using CBIS data analysis suite (ChemInnovation, CA). Percentage inhibition is calculated using the following formula: % Inhibition=100%×(1−(mean RFU of test sample−mean RFU of vehicle control)/(mean RFU of LPA control−mean RFU of vehicle control)).
Table B1 and Table B2 show the biological activity of compounds in in vitro LPA1 functional antagonist assay. Activity of the tested compounds provided in Table B1 is as follows: +++=IC50<1 μM; ++=IC50 1 μM−10 μM; +=IC50>10 μM.

human LPA1 [2] = biological target: T1, human LPA1; assay: In vitro LPA1 calcium flux antagonist assay - Bioduro protocol; format: cell-based; conditions: CHO-K1 cells overexpressing human LPA1 and G15a, LPA challenge at EC80
Outline: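 CHO-K1 cells overexpressing human LPA1 and G15a, serum-starved 4 h, loaded with Fluo-8 AM plus 2.5 mM probenecid in HBSS/20 mM Hepes for 30 min at 37 °C. Compound preincubated 30 min, then LPA challenge at EC80; FLIPR calcium signal, % inhibition relative to DMSO and LPA controls.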

[3] = calcium mobilization on FLIPR Tetra, read-out: IC50
[4] = Table B3, read-out: Activity (IC50 class)
[5] = Table B1, read-out: Activity (IC50 class)

For COc1cc(-c2ccc(NC3(C(=O)O)CCOCC3)cc2CCC2CCOC2)cc(OC)c1C (single isomer, unassigned) [Compound 185, 4-((3′,5′-dimethoxy-4′-methyl-2-(2-(tetrahydrofuran-3-yl)ethyl)-[1,1′-biphenyl]-4-yl)amino)tetrahydro-2H-pyran-4-carboxylic acid], the IC50 (human LPA1 [1]; Table B2, read-out: IC50) was 9.54 nM, the IC50 (human LPA1 [2]; [3]) was 12.6 nM and the IC50 (human LPA1 [2]; [4]) was < 100 nM.

For COc1cc(-c2ccc(NCCC(=O)O)cc2COC2Cc3ccccc3C2)cc(OC)c1C [Compound 101, 3-((2-(((2,3-dihydro-1H-inden-2-yl)oxy)methyl)-3′,5′-dimethoxy-4′-methyl-[1,1′-biphenyl]-4-yl)amino)propanoic acid], the IC50 (human LPA1 [1]; [5]) was < 1000 nM, the IC50 (human LPA1 [1]; Table B2, read-out: IC50) was 27.2 nM and the IC50 (human LPA1 [2]; [3]) was 340 nM. For the same molecule, the IC50 (human LPA1 [2]; [4]) was 100 to 1000 nM.

For COc1cc(OC)cc(-c2ccc(OCCC(=O)O)cc2COC2Cc3ccccc3C2)c1 [Compound 104], the IC50 (human LPA1 [1]; [5]) was < 1000 nM, the IC50 (human LPA1 [1]; Table B2, read-out: IC50) was 162 nM and the IC50 (human LPA1 [2]; [3]) was 628 nM. For the same molecule, the IC50 (human LPA1 [2]; [4]) was 100 to 1000 nM.

For COc1cc(-c2ccc(OCCC(=O)O)cc2COC2Cc3ccccc3C2)cc(OC)c1C [Compound 105, 3-((2-(((2,3-dihydro-1H-inden-2-yl)oxy)methyl)-3′,5′-dimethoxy-4′-methyl-[1,1′-biphenyl]-4-yl)oxy)propanoic acid], the IC50 (human LPA1 [1]; [5]) was < 1000 nM, the IC50 (human LPA1 [1]; Table B2, read-out: IC50) was 13.6 nM and the IC50 (human LPA1 [2]; [3]) was 245 nM. The IC50 (human LPA1 [2]; [4]) was 100 to 1000 nM.

In the case of COc1cc(-c2ccc(NC3(C(=O)O)CC3)cc2COC2Cc3ccccc3C2)cc(OC)c1C [Compound 109, 1-((2-(((2,3-dihydro-1H-inden-2-yl)oxy)methyl)-3′,5′-dimethoxy-4′-methyl-[1,1′-biphenyl]-4-yl)amino)cyclopropane-1-carboxylic acid], the IC50 (human LPA1 [1]; [5]) is reported as < 1000 nM, the IC50 (human LPA1 [1]; Table B2, read-out: IC50) is reported as 2.68 nM and the IC50 (human LPA1 [2]; [3]) is reported as 94.1 nM. For the same molecule, the IC50 (human LPA1 [2]; [4]) was < 100 nM.

With COc1cc(-c2ccc(NC3(C(=O)O)CCOCC3)cc2COC2CC2)c(F)c(OC)c1C [Compound 256, 4-((2-(cyclopropoxymethyl)-2′-fluoro-3′,5′-dimethoxy-4′-methyl-[1,1′-biphenyl]-4-yl)amino)tetrahydro-2H-pyran-4-carboxylic acid] the IC50 (human LPA1 [1]; Table B2, read-out: IC50) was 10.3 nM, the IC50 (human LPA1 [2]; [3]) was 16.5 nM and the IC50 (human LPA1 [2]; [4]) was < 100 nM.

With CCOc1c(C)ccc(-c2ccc(NC3(C(=O)O)CCOCC3)cc2COC2CCCC2)c1C [Compound 280] the IC50 (human LPA1 [1]; Table B2, read-out: IC50) was 18.6 nM, the IC50 (human LPA1 [2]; [3]) was 8.12 nM and the IC50 (human LPA1 [2]; [4]) was < 100 nM.

In the case of COc1cc(-c2ccc(NC3(C(=O)O)CCOCC3)cc2COC2CCCC2)c(C(F)F)c(OC)n1 [Compound 283], the IC50 (human LPA1 [1]; Table B2, read-out: IC50) is reported as 10.9 nM, the IC50 (human LPA1 [2]; [3]) is reported as 11.5 nM and the IC50 (human LPA1 [2]; [4]) is reported as < 100 nM.

For CCCOc1cccc(-c2ccc(NC3(C(=O)O)CCOCC3)cc2COC2CCCC2)c1F [Compound 284], the IC50 (human LPA1 [1]; Table B2, read-out: IC50) was 3.97 nM, the IC50 (human LPA1 [2]; [3]) was 11.9 nM and the IC50 (human LPA1 [2]; [4]) was < 100 nM.

For Cc1c(OC2CC2)cccc1-c1ccc(NC2(C(=O)O)CCOCC2)cc1COC1CCCC1 [Compound 285], the IC50 (human LPA1 [1]; Table B2, read-out: IC50) was 6.62 nM, the IC50 (human LPA1 [2]; [3]) was 13.9 nM and the IC50 (human LPA1 [2]; [4]) was < 100 nM.

Cc1c(OC2CC2)cccc1-c1ccc(NC2(C(=O)O)CCOCC2)cc1COC1CC1 [Compound 294, 4-((3′-cyclopropoxy-2-(cyclopropoxymethyl)-2′-methyl-[1,1′-biphenyl]-4-yl)amino)tetrahydro-2H-pyran-4-carboxylic acid] was tested, and the IC50 (human LPA1 [1]; Table B2, read-out: IC50) was 7.15 nM, the IC50 (human LPA1 [2]; [3]) was 5.85 nM and the IC50 (human LPA1 [2]; [4]) was < 100 nM.

In the case of CCOc1cccc(-c2ccc(NC3(C(=O)O)CCOCC3)cc2COC2CC2)c1Cl [Compound 295, 4-((2′-chloro-2-(cyclopropoxymethyl)-3′-ethoxy-[1,1′-biphenyl]-4-yl)amino)tetrahydro-2H-pyran-4-carboxylic acid], the IC50 (human LPA1 [1]; Table B2, read-out: IC50) is reported as 7.94 nM, the IC50 (human LPA1 [2]; [3]) is reported as 3.31 nM and the IC50 (human LPA1 [2]; [4]) is reported as < 100 nM.

With CCOc1cc(OC)cc(-c2ccc(NC3(C(=O)O)CCOCC3)cc2CCC2CC2)c1F [Compound 298] the IC50 (human LPA1 [1]; Table B2, read-out: IC50) was 2.64 nM, the IC50 (human LPA1 [2]; [3]) was 0.763 nM and the IC50 (human LPA1 [2]; [4]) was < 100 nM.

For CCOc1cccc(-c2ccc(NC3(C(=O)O)CCOCC3)cc2COC2CC2)c1C [Compound 355, 4-((2-(cyclopropoxymethyl)-3′-ethoxy-2′-methyl-[1,1′-biphenyl]-4-yl)amino)tetrahydro-2H-pyran-4-carboxylic acid], the IC50 (human LPA1 [1]; Table B2, read-out: IC50) was 7.53 nM, the IC50 (human LPA1 [2]; [3]) was 3.02 nM and the IC50 (human LPA1 [2]; [4]) was < 100 nM.
